{"source": "patent US10934310B2", "about": "“Inhibitors of Bruton's tyrosine kinase and method of their use” (JANSSEN PHARMACEUTICA NV, priority 2015, dated 2021)", "data": [{"target": "unphosphorylated-BTK kinase domain (UP-BTK), GST-tagged human BTK (389-659aa) (Homo sapiens (Human), UniProt Q06187)", "sequence (Q06187 389-659)": "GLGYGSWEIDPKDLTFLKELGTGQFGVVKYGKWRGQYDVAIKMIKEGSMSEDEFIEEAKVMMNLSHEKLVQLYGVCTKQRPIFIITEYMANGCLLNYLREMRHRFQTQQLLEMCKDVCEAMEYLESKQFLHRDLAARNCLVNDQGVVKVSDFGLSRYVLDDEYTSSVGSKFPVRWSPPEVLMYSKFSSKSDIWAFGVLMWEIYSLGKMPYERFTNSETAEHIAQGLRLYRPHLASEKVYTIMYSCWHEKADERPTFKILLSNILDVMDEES", "assay": "BTK Kinase Lanthascreen Binding Assay", "conditions": "Lanthascreen binding, 60 minutes incubation; pIC50 = negative log of the IC50 in molar", "method": "(§1) BTK Kinase Lanthascreen Binding Assay:\n(§2) A BTK kinase lanthascreen binding assay monitors compound binding to unphosphorylated-BTK kinase domain (UP-BTK), by competing with a fluorescent labeled tracer. […] Data were analyzed using Xlfit™ version 5.3 from ID Business Solutions (Guildford), Microsoft Excel add-in. pIC50 refers to the negative log of the IC50 in molar.", "values": [{"smiles": "C=CC(=O)N[C@H]1CCC[C@H]1NC(=O)c1sc2nccc3c2c1NC(=O)N3c1ccc(Oc2cccc(C)n2)cc1", "note": "[Example 369, N-((1R,2S)-2-Acrylamidocyclopentyl)-5-(4-((6-methylpyridin-2-yl)oxy)phenyl)-4-oxo-4,5-dihydro-3H-1-thia-3,5,8-triazaacenaphthylene-2-carboxamide]", "BTK_I_binding pIC50": 8.06}, {"smiles": "C=CC(=O)N[C@H]1CCC[C@H]1NC(=O)c1sc2nccc3c2c1NC(=O)N3c1ccc(Oc2ccc(C)nc2)cc1", "note": "[Example 370, N-((1R,2S)-2-Acrylamidocyclopentyl)-5-(4-((6-methylpyridin-3-yl)oxy)phenyl)-4-oxo-4,5-dihydro-3H-1-thia-3,5,8-triazaacenaphthylene-2-carboxamide]", "BTK_I_binding pIC50": 7.79}, {"smiles": "C=CC(=O)N[C@H]1CCC[C@H]1NC(=O)c1sc2nccc3c2c1NC(=O)N3c1ccc(Oc2cccnc2C)cc1", "note": "[Example 372, N-((1R,2S)-2-Acrylamidocyclopentyl)-5-(4-((2-methylpyridin-3-yl)oxy)phenyl)-4-oxo-4,5-dihydro-3H-1-thia-3,5,8-triazaacenaphthylene-2-carboxamide]", "BTK_I_binding pIC50": 7.93}, {"smiles": "C=CC(=O)N[C@H]1CCC[C@H]1NC(=O)c1sc2nccc3c2c1NC(=O)N3c1ccnc(C2CCC2)c1", "note": "[Example 376, N-((1R,2S)-2-Acrylamidocyclopentyl)-5-(2-cyclobutylpyridin-4-yl)-4-oxo-4,5-dihydro-3H-1-thia-3,5,8-triazaacenaphthylene-2-carboxamide]", "BTK_I_binding pIC50": 7.81}, {"smiles": "C=CC(=O)N[C@@H]1CCC[C@H]1NC(=O)c1sc2nccc3c2c1NC(=O)N3c1ccnc(C2CCC2)c1", "note": "[Example 379, N-((1R,2R)-2-Acrylamidocyclopentyl)-5-(2-cyclobutylpyridin-4-yl)-4-oxo-4,5-dihydro-3H-1-thia-3,5,8-triazaacenaphthylene-2-carboxamide]", "BTK_I_binding pIC50": 6.80}, {"smiles": "C=CC(=O)N[C@H]1CCC[C@H]1NC(=O)c1sc2nccc3c2c1NC(=O)N3c1ccc(O[C@H]2CCOC2)cc1C", "note": "[Example 383, N-((1R,2S)-2-Acrylamidocyclopentyl)-5-(2-methyl-4-(((S)-tetrahydrofuran-3-yl)oxy)phenyl)-4-oxo-4,5-dihydro-3H-1-thia-3,5,8-triazaacenaphthylene-2-carboxamide]", "BTK_I_binding pIC50": 7.45}, {"smiles": "C=CC(=O)N[C@H]1CCC[C@H]1NC(=O)c1sc2nccc3c2c1NC(=O)N3c1ccc(Oc2ccc(C)nc2)cc1C", "note": "[Example 384, N-((1R,2S)-2-Acrylamidocyclopentyl)-5-(2-methyl-4-((6-methylpyridin-3-yl)oxy)phenyl)-4-oxo-4,5-dihydro-3H-1-thia-3,5,8-triazaacenaphthylene-2-carboxamide]", "BTK_I_binding pIC50": 7.54}, {"smiles": "C=CC(=O)N[C@H]1CCC[C@H]1NC(=O)c1sc2nccc3c2c1NC(=O)N3c1ccc(O[C@@H]2CCOC2)cc1C", "note": "[Example 386, N-((1R,2S)-2-Acrylamidocyclopentyl)-5-(2-methyl-4-(((R)-tetrahydrofuran-3-yl)oxy)phenyl)-4-oxo-4,5-dihydro-3H-1-thia-3,5,8-triazaacenaphthylene-2-carboxamide]", "BTK_I_binding pIC50": 7.09}, {"smiles": "C=CC(=O)N[C@H]1CCC[C@H]1NC(=O)c1sc2nccc3c2c1NC(=O)N3c1ccc(Oc2cccnn2)cc1", "note": "[Example 387, N-((1R,2S)-2-Acrylamidocyclopentyl)-4-oxo-5-(4-(pyridazin-3-yloxy)phenyl)-4,5-dihydro-3H-1-thia-3,5,8-triazaacenaphthylene-2-carboxamide]", "BTK_I_binding pIC50": 7.16}, {"smiles": "O=C(N[C@@H]1CCC[C@H]1O)c1sc2nccc3c2c1NC(=O)N3c1ccc(Oc2ccccc2)cc1", "note": "[Example 393, N-((1R,2R)-2-Hydroxycyclopentyl)-4-oxo-5-(4-phenoxyphenyl)-4,5-dihydro-3H-1-thia-3,5,8-triazaacenaphthylene-2-carboxamide]", "BTK_I_binding pIC50": 6.74}, {"smiles": "CC(=O)N[C@H]1CCC[C@H]1NC(=O)c1sc2nccc3c2c1NC(=O)N3c1ccc(Oc2ccccc2)cc1", "note": "[Example 396, N-((1R,2S)-2-Acetamidocyclopentyl)-4-oxo-5-(4-phenoxyphenyl)-4,5-dihydro-3H-1-thia-3,5,8-triazaacenaphthylene-2-carboxamide]", "BTK_I_binding pIC50": 6.66}, {"smiles": "CCC(=O)N[C@H]1CCC[C@H]1NC(=O)c1sc2nccc3c2c1NC(=O)N3c1ccc(Oc2ccccc2)cc1", "note": "[Example 398, 4-Oxo-5-(4-phenoxyphenyl)-N-((1R,2S)-2-propionamidocyclopentyl)-4,5-dihydro-3H-1-thia-3,5,8-triazaacenaphthylene-2-carboxamide]", "BTK_I_binding pIC50": 6.56}, {"smiles": "C=CC(=O)N[C@H]1CCCC[C@H]1NC(=O)c1sc2nccc3c2c1NC(=O)N3c1ccc(Oc2ccccn2)cc1C", "note": "[Example 401, N-((1R,2S)-2-Acrylamidocyclohexyl)-5-(2-methyl-4-(pyridin-2-yloxy)phenyl)-4-oxo-4,5-dihydro-3H-1-thia-3,5,8-triazaacenaphthylene-2-carboxamide]", "BTK_I_binding pIC50": 6.39}, {"smiles": "C=CC(=O)N[C@H]1CCCC[C@H]1NC(=O)c1sc2nccc3c2c1NC(=O)N3c1ccc(Oc2cccnn2)cc1C", "note": "[Example 406, N-((1R,2S)-2-Acrylamidocyclohexyl)-5-(2-methyl-4-(pyridazin-3-yloxy)phenyl)-4-oxo-4,5-dihydro-3H-1-thia-3,5,8-triazaacenaphthylene-2-carboxamide]", "BTK_I_binding pIC50": 6.13}, {"smiles": "CN[C@H]1CCN(C(=O)c2sc3nccc4c3c2NC(=O)N4c2ccc(Oc3ccccc3)cc2C)C1", "note": "[Example 417, (S)-5-(2-Methyl-4-phenoxyphenyl)-2-(3-(methylamino)pyrrolidine-1-carbonyl)-3H-1-thia-3,5,8-triazaacenaphthylen-4(5H)-one]", "BTK_I_binding pIC50": 5.89}, {"smiles": "CCC(=O)N[C@H]1CCN(C(=O)c2sc3nccc4c3c2NC(=O)N4c2ccc(Oc3ccccc3)cc2C)C1", "note": "[Example 418, (S)—N-(1-(5-(2-Methyl-4-phenoxyphenyl)-4-oxo-4,5-dihydro-3H-1-thia-3,5,8-triazaacenaphthylene-2-carbonyl)pyrrolidin-3-yl)propionamide]", "BTK_I_binding pIC50": 5.80}, {"smiles": "CC(=O)N[C@H]1CCN(C(=O)c2sc3nccc4c3c2NC(=O)N4c2ccc(Oc3ccccc3)cc2C)C1", "note": "[Example 419, (S)—N-(1-(5-(2-Methyl-4-phenoxyphenyl)-4-oxo-4,5-dihydro-3H-1-thia-3,5,8-triazaacenaphthylene-2-carbonyl)pyrrolidin-3-yl)acetamide]", "BTK_I_binding pIC50": 5.79}, {"smiles": "Cc1cc(Oc2ccccc2)ccc1N1C(=O)Nc2c(C(=O)N3CC[C@H](N)C3)sc3nccc1c23", "note": "[Example 420, (S)-2-(3-Aminopyrrolidine-1-carbonyl)-5-(2-methyl-4-phenoxyphenyl)-3H-1-thia-3,5,8-triazaacenaphthylen-4(5H)-one]", "BTK_I_binding pIC50": 5.73}, {"smiles": "Cc1cc(Oc2ccccc2)ccc1N1C(=O)Nc2c(C(=O)N3CC[C@H](N(C)C)C3)sc3nccc1c23", "note": "[Example 421, (S)-2-(3-(Dimethylamino)pyrrolidine-1-carbonyl)-5-(2-methyl-4-phenoxyphenyl)-3H-1-thia-3,5,8-triazaacenaphthylen-4(5H)-one]", "BTK_I_binding pIC50": 5.66}, {"smiles": "CC(=O)N[C@H]1CC[C@H](NC(=O)c2sc3nccc4c3c2NC(=O)N4c2cnc(Oc3ccccc3)cc2C)CC1", "note": "[Example 432, N-((1r,4r)-4-Acetamidocyclohexyl)-5-(*S)-(4-methyl-6-phenoxypyridin-3-yl)-4-oxo-4,5-dihydro-3H-1-thia-3,5,8-triazaacenaphthylene-2-carboxamide]", "BTK_I_binding pIC50": 7.45}, {"smiles": "C=CC(=O)N[C@H]1CCN(C(=O)c2sc3nccc4c3c2NC(=O)N4c2ccc(Oc3ccccc3)cc2C)C1", "note": "[Example 433, (S)—N-(1-(5-(2-Methyl-4-phenoxyphenyl)-4-oxo-4,5-dihydro-3H-1-thia-3,5,8-triazaacenaphthylene-2-carbonyl)pyrrolidin-3-yl)acrylamide]", "BTK_I_binding pIC50": 7.01}, {"smiles": "C=CC(=O)N[C@@H]1CCN(C(=O)c2sc3nccc4c3c2NC(=O)N4c2ccc(Oc3ccccc3)cc2C)C1", "note": "[Example 434, (R)—N-(1-(5-(2-Methyl-4-phenoxyphenyl)-4-oxo-4,5-dihydro-3H-1-thia-3,5,8-triazaacenaphthylene-2-carbonyl)pyrrolidin-3-yl)acrylamide]", "BTK_I_binding pIC50": 6.29}, {"smiles": "Cc1cc(Oc2ccccc2)ccc1N1C(=O)Nc2c(C(=O)N3CC[C@H](NC(=O)/C(C#N)=C/C4CC4)C3)sc3nccc1c23", "note": "[Example 435, (S,E)-2-Cyano-3-cyclopropyl-N-(1-(5-(2-methyl-4-phenoxyphenyl)-4-oxo-4,5-dihydro-3H-1-thia-3,5,8-triazaacenaphthylene-2-carbonyl)pyrrolidin-3-yl)acrylamide]", "BTK_I_binding pIC50": 6.15}, {"smiles": "Cc1cc(Oc2ccccc2)ccc1N1C(=O)Nc2c(C(=O)N3CC[C@@H](NC(=O)/C(C#N)=C/C4CC4)C3)sc3nccc1c23", "note": "[Example 436, (R,E)-2-Cyano-3-cyclopropyl-N-(1-(5-(2-methyl-4-phenoxyphenyl)-4-oxo-4,5-dihydro-3H-1-thia-3,5,8-triazaacenaphthylene-2-carbonyl)pyrrolidin-3-yl)acrylamide]", "BTK_I_binding pIC50": 6.09}]}, {"target": "unphosphorylated-BTK kinase domain (UP-BTK), GST-tagged human BTK (389-659aa) (Homo sapiens (Human), UniProt Q06187)", "assay": "BTK Kinase Lanthascreen Binding Assay", "conditions": "read-out: BTK_I_binding pIC50 (converted)", "method": "as §1, §2", "units": {"IC50": "nM"}, "values": [{"smiles": "C=CC(=O)N[C@H]1CCCC[C@H]1NC(=O)c1sc2nccc3c2c1NC(=O)N3c1ccc(Oc2cccnn2)cc1", "note": "[Example 408, N-((1R,2S)-2-Acrylamidocyclohexyl)-4-oxo-5-(4-(pyridazin-3-yloxy)phenyl)-4,5-dihydro-3H-1-thia-3,5,8-triazaacenaphthylene-2-carboxamide]", "IC50": "> 1000"}]}]}
